From patent US10206909B2, “3-(1H-pyrrolo[2,3-B]pyridin-2-yl)-1H-pyrazolo[4,3-B]pyridines and therapeutic uses thereof” (Samumed, LLC, priority 2015, dated 2019)

Experiments:
Format in all cases: cell-based
IL-6 (THP-1 cells) = test: IL-6 inhibition in LPS-stimulated THP-1 cells (HTRF); settings: Homo sapiens; THP-1 cells, LPS 500 ng/mL, 22 hours, IL6 HTRF
Method: Human Monocyte Cell Culture: Human monocyte cell line (THP-1 cells; Catalog # TIB-202, ATCC, Manassas, Va.) were cultured in Roswell Park Memorial Institute (RPMI) 1640 Medium (Catalog #21870-100, Buffalo, N.Y.) with 1% L-glutamine, 1% HEPES, 1% Sodium Pyruvate, 2% Sodium Bicarbonate supplemented with 100 units/mL penicillin, 50 μg/mL streptomycin, 2-mercaptoethanol (0.05 mM) [basal medium] and 10% fetal bovine serum (Catalog #16140089, Life Technologies, Carlsbad, Calif.) at 37° C. and 5% CO2.
Compound Screening: THP-1 cells were cultured in basal media with 1% FBS for 24 hours before the start of the assay. Each compound was dissolved in DMSO as a 10 mM stock and used to prepare compound source plates. Serial dilution (1:3, 10-point dose-response curves starting from 10 μM) and compound transfer was performed using the ECHO 550 (Labcyte, Sunnyvale, Calif.) into 384-well white low volume assay plates (Greiner Bio-One) with appropriate DMSO backfill for a final DMSO concentration of 0.1%. THP-1 cells were plated at 5000 cells/well in the 384-well plates and incubated at 37° C. for 2 h. 500 ng/mL of LPS was added after 2 hours and cells were incubated for another 22 hours at 37° C. Plates were spun in a centrifuge for 1 minute at […] and a mixture of anti-IL6 XL665, and anti-IL6 Cryptate diluted in reconstitution buffer (Cisbio Inc.) was added to each well. Following incubation for 3 hrs at room temperature, Homogeneous Time-Resolved Fluorescence (HTRF) was measured using the Envision (Perkin Elmer) at 665 nm and […]. The ratio of fluorescence at 665 nm to 620 nm was used as a readout for IL6 quantification. All samples were processed in duplicate. Readings were normalized to DMSO treated cells and normalized activities were utilized for EC50 calculations using the dose-response log (inhibitor) vs. response —variable slope (four parameters) nonlinear regression feature available in GraphPad Prism 5.0 (or Dotmatics). For EC50 of >10 μM, the percent inhibition at 10 μM is provided.

[1] = system: primary human fibroblasts derived from IPF patients (LL29 cells); test: Inhibition of the fibrotic process: αSMA staining in TGF-β1 treated fibroblasts; settings: Fibroblast, 96 h, LL29 cells, TGF-β1 20 ng/mL, 4 days, % αSMA positive cells
Text: Representative compounds were screened using primary human fibroblasts (derived from IPF patients) treated with TGF-β1 to determine their ability to inhibit the fibrotic process.
Human Fibroblast Cell Culture: Primary human fibroblasts derived from IPF patients (LL29 cells) [^1Xiaoqiu Liu, et. al., “Fibrotic Lung Fibroblasts Show Blunted Inhibition by cAMP Due to Deficient cAMP Response Element-Binding Protein Phosphorylation”, Journal of Pharmacology and Experimental Therapeutics (2005), 315(2), 678-687; ^2Watts, K. L., et. al., “RhoA signaling modulates cyclin D1 expression in human lung fibroblasts; implications for idiopathic pulmonary fibrosis”, Respiratory Research (2006), 7(1), 88] were obtained from American Type Culture Collection (ATCC) and expanded in F12 medium supplemented with 15% Fetal Bovine Serum and Penicillin/Streptomycin.
Compound Screening: Each compound was dissolved in DMSO as a 10 mM stock and used to prepare compound source plates. Serial dilution (1:2, 11-point dose-response curves from 10 μM to […]) and compound transfer was performed using the ECHO 550 (Labcyte, Sunnyvale, Calif.) into 384-well clear bottom assay plates (Greiner Bio-One) with appropriate DMSO backfill for a final DMSO concentration of 0.1%. LL29 cells are plated at 1,500 cells/well in 80 μL/well F12 medium supplemented with 1% Fetal Bovine Serum. One hour after addition of the cells, TGF-β1 (Peprotech; 20 ng/mL) was added to the plates to induce fibrosis (ref. 1 and 2 above). Wells treated with TGF-β1 and containing DMSO were used as controls. Cells were incubated at 37° C. and 5% CO2 for 4 days. Following incubation for 4 days, SYTOX green nucleic acid stain (Life Technologies [Thermo Fisher Scientific]) was added to the wells at a final concentration of 1 μM and incubated at room temperature for 30 min. Cells were then fixed using 4% formaldehyde (Electron Microscopy Sciences), washed 3 times with PBS followed by blocking and permeabilization using 3% Bovine Serum Albumin (BSA; Sigma) and 0.3% Triton X-100 (Sigma) in PBS. Cells were then stained with antibody specific to α-smooth muscle actin (αSMA; Abcam) (ref. 1 and 2 above) in 3% Bovine Serum Albumin (BSA; Sigma) and 0.3% Triton X-100 (Sigma) in PBS, and incubated overnight at 4° C. Cells were then washed 3 times with PBS, followed by incubation with Alexa Flor-647 conjugated secondary antibody (Life Technologies [Thermo Fisher Scientific]) and DAPI at room temperature for 1 hour. Cells were then washed 3 times with PBS and plates were sealed for imaging. αSMA staining was imaged by excitation at 630 nm and emission at 665 nm and quantified using the Compartmental Analysis program on the CellInsight CX5 (Thermo Scientific). Dead or apoptotic cells were excluded from analysis based on positive SYTOX green staining. % of total cells positive for αSMA were counted in each well and normalized to the average of 11 wells treated with TGF-β1 on the same plate using Dotmatics' Studies Software. The normalized averages (fold change over untreated) of 3 replicate wells for each compound concentration were used to create dose-responses curves and EC50 values were calculated using non-linear regression curve fit in the Dotmatics' Studies Software. For EC50 of >10 μM, the percent inhibition at 10 μM is provided.

[2] = system: Wnt activity (Sp5-Luc reporter, SW480 colon carcinoma cells); test: Wnt activity screening assay: Sp5-Luc reporter gene assay in SW480 cells; settings: Homo sapiens, SW480 cells, overnight incubation
Text: The screening assay for Wnt activity is described as follows. Reporter cell lines can be generated by stably transducing cancer cell lines (e.g., colon cancer) or primary cells (e.g., IEC-6 intestinal cells) with a lentiviral construct that includes a Wnt-responsive promoter driving expression of the firefly luciferase gene.
SW480 colon carcinoma cells were transduced with a lentiviral vector expressing luciferase with a human Sp5 promoter consisting of a sequence of eight TCF/LEF binding sites. SW480 cells stably expressing the Sp5-Luc reporter gene and a hygromycin resistance gene were selected by treatment with 150 μg/mL of hygromycin for 7 days. These stably transduced SW480 cells were expanded in cell culture and used for all further screening activities. Each compound was dissolved in DMSO as a 10 mM stock and used to prepare compound source plates. Serial dilution (1:3, 10-point dose-response curves starting from 10 μM) and compound transfer was performed using the ECHO 550 (Labcyte, Sunnyvale, Calif.) into 384-well white solid bottom assay plates (Greiner Bio-One) with appropriate DMSO backfill for a final DMSO concentration of 0.1%. For Sp5-Luc reporter gene assays, the cells were plated at 4,000 cells/well in 384-well plates with medium containing 1% fetal bovine serum and incubated overnight at 37° C. and 5% CO2. Following incubation, 20 μl of BrightGlo luminescence reagent (Promega) was added to each well of the 384-well assay plates. The plates were placed on an orbital shaker for 2 min and then luminescence was quantified using the Envision (Perkin Elmer) plate reader. Readings were normalized to DMSO only treated cells, and normalized activities were utilized for EC50 calculations using the dose-response log (inhibitor) vs. response -variable slope (four parameters) nonlinear regression feature available in GraphPad Prism 5.0 (or Dotmatics). For EC50 of >10 μM, the percent inhibition at 10 μM is provided.

SW480 colon cancer cells = test: Cell viability assay (CellTiter-Blue); settings: Homo sapiens, 96 h; SW480 cell viability, four days, CellTiter-Blue
Method: Representative compounds were screened using the following assay procedure to assess the effect on cell viability as described below.
Each compound was dissolved in DMSO as a 10 mM stock and used to prepare compound source plates. Serial dilution (1:3, 8-point dose-response curves from 10 μM to 0.0045 μM) and compound transfer was performed using the ECHO 550 (Labcyte, Sunnyvale, Calif.) into 96-well clear bottom, black-walled plates (Corning-Costar).
Approximately 2×10^3 SW480 colon cancer cells were seeded into each well and allowed to incubate in the presence or absence of compound for four days at 37° C./5% CO2. Eight replicates of DMSO-treated cells served as controls and cells treated with compound were performed in duplicate.
After incubation, 20 μL of CellTiter-Blue (Promega) was added to each well allowed to incubate for approximately 3 hours. This reagent was a buffered solution which contains resazurin, metabolically active cells were able to reduce rezarurin (blue) into resorufin (pink) which was highly fluorescent. This measured fluorescence was used as a readout for cell viability.
After incubation, the plates were read at Ex 560 nm Em 590 nm (Cytation 3, BioTek). Dose-response curves were generated and EC50 concentration values were calculated using non-linear regression curve fit in the GraphPad Prism (San Diego, Calif.) or Dotmatics' Studies Software (Bishops Stortford, UK). For EC50 of >10 μM, the percent inhibition at 10 μM is provided.

| EC50 (IL-6 (THP-1 cells)) | EC50 [2] | EC50 (SW480 colon cancer cells) | Structure (SMILES) | EC50 [1] |
| --- | --- | --- | --- | --- |
| 1350 nM | 1340 nM | 4270 nM | CC(C)Nc1cncc(-c2ccc3[nH]nc(-c4cc5c(-c6cccs6)ccnc5[nH]4)c3n2)c1 [Compound 348, N-Isopropyl-5-(3-(4-(thiophen-2-yl)-1H-pyrrolo[2,3-b]pyridin-2-yl)-1H-pyrazolo[4,3-b]pyridin-5-yl)pyridin-3-amine] | 994 nM |
| 9 nM | 1500 nM | 1940 nM | CN(C)CCNc1cc(F)cc(-c2ccnc3[nH]c(-c4n[nH]c5ccc(-c6cncc(NC(=O)c7ccccc7)c6)nc45)cc23)c1 [Compound 459, N-(5-(3-(4-(3-((2-(Dimethylamino)ethyl)amino)-5-fluorophenyl)-1H-pyrrolo [2,3-b]pyridin-2-yl)-1H-pyrazolo[4,3-b]pyridin-5-yl)pyridin-3-yl)benzamide] | 738 nM |
